{
  "source": "ChEMBL document CHEMBL6115005",
  "about": "“New phenylpiperazine-thiazolidine-2,4-dione hybrids targeting MAO inhibition: Synthesis, biological evaluation, kinetic study and in silico insights” (Bioorg Med Chem, 2025)",
  "key": {"[1]": {"biological_target": "T1, Amine oxidase [flavin-containing] A (Homo sapiens, UniProt P21397)", "T1 sequence (P21397 whole entry)": "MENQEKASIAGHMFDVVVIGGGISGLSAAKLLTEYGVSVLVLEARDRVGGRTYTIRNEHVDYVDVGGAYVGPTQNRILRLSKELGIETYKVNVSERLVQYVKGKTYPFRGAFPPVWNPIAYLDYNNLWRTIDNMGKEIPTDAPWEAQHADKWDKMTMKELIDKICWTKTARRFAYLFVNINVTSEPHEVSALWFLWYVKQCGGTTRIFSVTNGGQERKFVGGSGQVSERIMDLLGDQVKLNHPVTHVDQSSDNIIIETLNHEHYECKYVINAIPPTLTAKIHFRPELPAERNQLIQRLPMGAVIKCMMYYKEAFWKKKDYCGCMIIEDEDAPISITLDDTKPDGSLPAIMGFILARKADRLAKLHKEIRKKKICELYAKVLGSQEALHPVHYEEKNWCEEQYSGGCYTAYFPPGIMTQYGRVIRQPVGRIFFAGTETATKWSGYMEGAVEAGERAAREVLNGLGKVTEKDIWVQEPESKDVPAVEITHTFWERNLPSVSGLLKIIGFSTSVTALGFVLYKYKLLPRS", "experiment": "Inhibition of human MAO-A using kynuramine as substrate by fluorometric assay"}, "[2]": {"organism": "Homo sapiens", "experiment": "Selectivity index, ratio of IC50 for inhibition of human MAO-B using benzylamine as substrate to IC50 for inhibition of human MAO-A using kynuramine as substrate"}, "[3]": {"biological_target": "T2, Amine oxidase [flavin-containing] B (Homo sapiens, UniProt P27338)", "T2 sequence (P27338 whole entry)": "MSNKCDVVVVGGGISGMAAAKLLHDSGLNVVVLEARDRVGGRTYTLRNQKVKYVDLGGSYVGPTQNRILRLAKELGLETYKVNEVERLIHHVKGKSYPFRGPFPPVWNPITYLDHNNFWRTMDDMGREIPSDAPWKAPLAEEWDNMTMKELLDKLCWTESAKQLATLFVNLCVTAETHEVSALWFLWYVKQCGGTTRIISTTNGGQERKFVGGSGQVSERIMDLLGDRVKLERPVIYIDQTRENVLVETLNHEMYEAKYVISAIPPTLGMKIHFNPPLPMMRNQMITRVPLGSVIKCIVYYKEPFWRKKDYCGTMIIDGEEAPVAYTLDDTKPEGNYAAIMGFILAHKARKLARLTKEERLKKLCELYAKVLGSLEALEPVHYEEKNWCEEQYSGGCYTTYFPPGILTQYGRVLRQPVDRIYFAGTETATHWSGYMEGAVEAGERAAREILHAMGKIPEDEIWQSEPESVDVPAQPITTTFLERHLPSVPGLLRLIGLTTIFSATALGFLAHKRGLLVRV", "experiment": "Inhibition of human MAO-B using benzylamine as substrate by fluorometric assay"}, "[4]": {"biological_target": "T1, Amine oxidase [flavin-containing] A", "experiment": "Inhibition of MAO-A (unknown origin)"}, "[5]": {"biological_target": "T2, Amine oxidase [flavin-containing] B", "experiment": "Inhibition of MAO-B (unknown origin)"}, "[6]": {"biological_target": "T1, Amine oxidase [flavin-containing] A", "experiment": "Mixed type inhibition of human MAO-A by lineweaver-burk plot analysis"}, "[7]": {"test_system": "PC-12", "experiment": "Neuroprotective activity against rotenone-induced cytotoxicity in rat PC12 cells assessed as increase in cell viability at 16 microg/ml by MTT assay", "assay_type": "functional", "conditions": "dose 16 µg/ml"}, "[8]": {"test_system": "SH-SY5Y", "experiment": "Cytotoxicity against human SH-SY5Y cells by MTT assay", "assay_type": "functional, cell-based"}},
  "data": [
    {"smiles": "O=C1S/C(=C\\c2ccc(N3CCN(C4CCCCC4)CC3)cc2)C(=O)N1Cc1ccccc1", "values": [
      {"measurement": "IC50", "setting": "[1]", "result": 518, "unit": "nM"},
      {"measurement": "Ratio IC50", "setting": "[2]", "result": 5.28},
      {"measurement": "IC50", "setting": "[3]", "result": 2740, "unit": "nM"}
    ]},
    {"smiles": "C#CCN1C(=O)S/C(=C\\c2ccc(N3CCN(c4ccccc4)CC3)cc2)C1=O", "values": [
      {"measurement": "IC50", "setting": "[1]", "result": 1490, "unit": "nM"},
      {"measurement": "Ratio IC50", "setting": "[2]", "result": 2.02},
      {"measurement": "IC50", "setting": "[3]", "result": 3010, "unit": "nM"}
    ]},
    {"smiles": "COc1ccc(N2CCN(Cc3nnc(SCC(=O)c4ccc(Cl)cc4)n3C)CC2)cc1", "values": [
      {"measurement": "IC50", "setting": "[4]", "result": 70, "unit": "nM"},
      {"measurement": "IC50", "setting": "[5]", "result": 70, "unit": "nM"}
    ]},
    {"smiles": "O=C1NC(=O)/C(=C/c2ccc(N3CCN(C4CCCCC4)CC3)cc2)S1", "values": [
      {"measurement": "IC50", "setting": "[1]", "result": 3150, "unit": "nM"},
      {"measurement": "Ratio IC50", "setting": "[2]", "result": 2.85},
      {"measurement": "IC50", "setting": "[3]", "result": 8980, "unit": "nM"}
    ]},
    {"smiles": "C#CCN1C(=O)S/C(=C\\c2ccc(N3CCN(c4ccccc4OCC)CC3)cc2)C1=O", "values": [
      {"measurement": "IC50", "setting": "[1]", "result": 218, "unit": "nM"},
      {"measurement": "Ratio IC50", "setting": "[2]", "result": 7.96},
      {"measurement": "IC50", "setting": "[3]", "result": 1740, "unit": "nM"}
    ]},
    {"smiles": "C=CCN1C(=O)S/C(=C\\c2ccc(N3CCN(c4ccccc4OCC)CC3)cc2)C1=O", "values": [
      {"measurement": "IC50", "setting": "[1]", "result": 812, "unit": "nM"},
      {"measurement": "Ratio IC50", "setting": "[2]", "result": 6.87},
      {"measurement": "IC50", "setting": "[3]", "result": 5580, "unit": "nM"}
    ]},
    {"smiles": "C=CCN1C(=O)S/C(=C\\c2ccc(N3CCN(c4ccc(F)cc4)CC3)cc2)C1=O", "values": [
      {"measurement": "IC50", "setting": "[1]", "result": 1480, "unit": "nM"},
      {"measurement": "Ratio IC50", "setting": "[2]", "result": 0.22},
      {"measurement": "IC50", "setting": "[3]", "result": 330, "unit": "nM"}
    ]},
    {"smiles": "CN1CCN(c2ccc(/C=N/Nc3nc(-c4ccc([N+](=O)[O-])cc4)cs3)cc2)CC1", "values": [
      {"measurement": "IC50", "setting": "[4]", "result": 57, "unit": "nM"}
    ]},
    {"smiles": "CC(C)(C)c1ccc(S(=O)(=O)c2ccc(N3CCN(C(c4ccccc4)c4ccccc4)CC3)cc2)cc1", "values": [
      {"measurement": "IC50", "setting": "[5]", "result": 610, "unit": "nM"}
    ]},
    {"smiles": "C=CCN1C(=O)S/C(=C\\c2ccc(N3CCN(c4ccccc4)CC3)cc2)C1=O", "values": [
      {"measurement": "IC50", "setting": "[1]", "result": 5700, "unit": "nM"},
      {"measurement": "Ratio IC50", "setting": "[2]", "result": "> 2.66"},
      {"measurement": "IC50", "setting": "[3]", "result": "> 10000", "unit": "nM"}
    ]},
    {"smiles": "CCOc1ccccc1N1CCN(c2ccc(/C=C3\\SC(=O)NC3=O)cc2)CC1", "values": [
      {"measurement": "IC50", "setting": "[1]", "result": 1360, "unit": "nM"},
      {"measurement": "Ratio IC50", "setting": "[2]", "result": 2},
      {"measurement": "IC50", "setting": "[3]", "result": 2730, "unit": "nM"}
    ]},
    {"smiles": "O=C1S/C(=C\\c2ccc(N3CCN(c4ccc(F)cc4)CC3)cc2)C(=O)N1Cc1ccccc1", "values": [
      {"measurement": "IC50", "setting": "[1]", "result": 188, "unit": "nM"},
      {"measurement": "Ki", "setting": "[6]", "result": 3.4, "unit": "nM"},
      {"measurement": "Activity", "setting": "[7]", "result": 73.16, "unit": "%"},
      {"measurement": "IC50", "setting": "[8]", "result": 94600, "unit": "nM"},
      {"measurement": "IC50", "setting": "[3]", "result": 479, "unit": "nM"}
    ]},
    {"smiles": "C=CCN1C(=O)S/C(=C\\c2ccc(N3CCN(C4CCCCC4)CC3)cc2)C1=O", "values": [
      {"measurement": "IC50", "setting": "[1]", "result": 1730, "unit": "nM"},
      {"measurement": "Ratio IC50", "setting": "[2]", "result": "> 5.79"},
      {"measurement": "IC50", "setting": "[3]", "result": "> 10000", "unit": "nM"}
    ]},
    {"smiles": "C#CCN1C(=O)S/C(=C\\c2ccc(N3CCN(C4CCCCC4)CC3)cc2)C1=O", "values": [
      {"measurement": "IC50", "setting": "[1]", "result": 1430, "unit": "nM"},
      {"measurement": "Ratio IC50", "setting": "[2]", "result": 0.49},
      {"measurement": "IC50", "setting": "[3]", "result": 705, "unit": "nM"}
    ]},
    {"smiles": "O=C1S/C(=C\\c2ccc(N3CCN(c4ccccc4)CC3)cc2)C(=O)N1Cc1ccccc1", "values": [
      {"measurement": "IC50", "setting": "[1]", "result": 194, "unit": "nM"},
      {"measurement": "Ratio IC50", "setting": "[2]", "result": 3.36},
      {"measurement": "IC50", "setting": "[3]", "result": 652, "unit": "nM"}
    ]},
    {"smiles": "O=C1NC(=O)/C(=C/c2ccc(N3CCN(c4ccc(F)cc4)CC3)cc2)S1", "values": [
      {"measurement": "IC50", "setting": "[1]", "result": 2520, "unit": "nM"},
      {"measurement": "Ratio IC50", "setting": "[2]", "result": 2.83},
      {"measurement": "IC50", "setting": "[3]", "result": 7130, "unit": "nM"}
    ]},
    {"smiles": "CCOc1ccccc1N1CCN(c2ccc(/C=C3\\SC(=O)N(Cc4ccccc4)C3=O)cc2)CC1", "values": [
      {"measurement": "IC50", "setting": "[1]", "result": 502, "unit": "nM"},
      {"measurement": "Ratio IC50", "setting": "[2]", "result": 2.11},
      {"measurement": "IC50", "setting": "[3]", "result": 1060, "unit": "nM"}
    ]},
    {"smiles": "C#CCN[C@@H]1CCc2ccccc21", "note": "[RASAGILINE]", "values": [
      {"measurement": "Activity", "setting": "[7]", "result": 69.75, "unit": "%"}
    ]},
    {"smiles": "OCc1ccc(N2CCN(c3cccc(Cl)c3)CC2)cc1", "values": [
      {"measurement": "IC50", "setting": "[4]", "result": 90, "unit": "nM"}
    ]},
    {"smiles": "O=C1NC(=O)/C(=C/c2ccc(N3CCN(c4ccccc4)CC3)cc2)S1", "values": [
      {"measurement": "IC50", "setting": "[1]", "result": 405, "unit": "nM"},
      {"measurement": "Ratio IC50", "setting": "[2]", "result": 16.6},
      {"measurement": "IC50", "setting": "[3]", "result": 6730, "unit": "nM"}
    ]},
    {"smiles": "C#CCN1C(=O)S/C(=C\\c2ccc(N3CCN(c4ccc(F)cc4)CC3)cc2)C1=O", "values": [
      {"measurement": "IC50", "setting": "[1]", "result": 381, "unit": "nM"},
      {"measurement": "Ratio IC50", "setting": "[2]", "result": 3.57},
      {"measurement": "IC50", "setting": "[3]", "result": 1360, "unit": "nM"}
    ]}
  ]
}
